Source: patent US20250188480A1, “AGENT FOR ENHANCING PRODUCTION OF VIRAL VECTOR AND METHOD FOR PRODUCING VIRAL VECTOR” (priority 2022, published 2025)
Entries after “also recorded” stand apart in the source; their conditions may differ.

Assays:
[1] = tested on: HEK293 cells producing rAAV1; assay: Evaluation of AAV vector-producing ability by treatment with chemical substance (virus titer by qPCR); format: cell-based, human; details: for effects of enhancing the amount of production of AAV vectors (v.g.): HEK293 cells, serum-free E-MEM supplemented with the substance at various concentrations, culture for 3 days, vs untreated control
Experimental: The cells of the immortalized cell line derived from the human embryonic kidney (HEK293 cells) purchased from ATCC were cultured in E-MEM supplemented with 10% fetal bovine serum, penicillin, and streptomycin at 37° C. in the presence of 5% CO2.
The recombinant adeno-associated virus 1 (rAAV1) was prepared with the use of 3 types of plasmids: pAAV-ZsGreen1 (TaKaRa Bio), pAAV2/1, and pHelper. A mixture of 3 types of plasmids for preparation of rAAV1 was adjusted to bring the mixing ratio of DNA to Polyethylenimine Max (PEI: Polysciences) (DNA: PEI) to 1:2 in OPTI-MEM, and the reaction was allowed to proceed at room temperature for 15 minutes. After 90% or higher confluent HEK293 cells were transfected with E-MEM supplemented with 10% FBS for 6 hours, culture was performed in serum-free E-MEM to prepare the AAV type 1 vector.
Genome DNA of rAAV1 was extracted to measure the virus titer. Specifically, the culture supernatant was collected and treated with benzonase at 37° C. for 1 hour, and the viral genome DNA was extracted and purified using the DNeasy Blood & Tissue kit (QIAGEN). The virus titer was measured by real-time PCR in triplicate. qPCR was performed using primers targeting Zs-Green 1.
The virus titers achieved with the use of the chemical substances were compared with the virus titer of the control cells treated with serum-free E-MEM not supplemented with chemical substances.

HEK293 cells = details: treated for 5 days; HEK293 cells transduced at 1×10^5 v.g./cell, green fluorescence 3 days thereafter, vs vector without treatment

Compound | effects of enhancing the amount of production of AAV vectors (v.g.) [1] | amount of production of AAV vectors (v.g.) with the elapse of time ([1]; time after initiation of vector production, observed for 4 to 7 days) | infectious ability of the rAAV vector produced by treatment (HEK293 cells)
[NH3+][Pt-2]1([NH3+])[O]C(=O)C2(CCC2)C(=O)[O]1 [Carboplatin] | has effects of enhancing the amount of production of AAV vectors; also recorded: effects of enhancing production of rAAV vectors can be achieved | increasing with the elapse of time | retains the infectious ability equivalent to that of the AAV vector prepared without treatment
[NH2][Pt]1([NH2])[O]CC(=O)[O]1 [Nedaplatin] | has effects of enhancing the amount of production of AAV vectors; also recorded: effects of enhancing production of rAAV vectors can be achieved | – | –
N.N.[Cl][Pt][Cl] [Cisplatin] | has effects of enhancing the amount of production of AAV vectors; also recorded: effects of enhancing production of rAAV vectors can be achieved | – | –
